{"source": "patent US6166085A", "about": "“Method of producing analgesia” (priority 1996, dated 2000)", "type_in_all_cases": "in vivo, Sprague-Dawley rats", "key": {"[1]": {"tested_on": "formalin-induced nociceptive responses", "experiment": "Rat formalin test (paw flinching), intrathecal drug", "excerpt": "One such model, for response to an acute stimulus, is the rat formalin test. This test reflects several levels of processing of nociceptive information in the spinal cord (see Wheeler-Aceto, et al. 1990; Wheeler-Aceto, et al., 1991). […] This second phase is thought to represent a state of facilitated processing evoked by the afferent input present during phase 1 and to involve release of at least two substances, glutamate and a, tachykinin, based on pharmacological evidence (Yamamoto and Yaksh, 1991, 1992).\nIn the rat formalin test, a standard dose of formalin is injected into the rat paw, and flexions of the paw are quantitated over the following 90 minute period (Example 1). A biphasic response pattern is typically observed, with numerous responses observed during the period 5 min. after injection (Phase 1) and a second phase (Phase 2) which occurs during the period about 10-60 minutes following injection. The mean number of flinches per minute is recorded as a function of time.\nQuantitation of responses during each phase is made by calculation of area under the curve of flinches/min., as shown in FIGS. 2B-2C.\nFIGS. 2, 3 and 5 show results of experiments in which varying doses of 3-hydroxy MEGX designated 3-hydroxy MEGX, were tested for effects on the formalin response in rats. A 5% formalin solution was injected subcutaneously into the hindpaw of Sprague-Dawley rats. Ten minutes prior to formalin injection, 3-hydroxy MEGX was administered by bolus injection through an indwelling spinal (intrathecal) catheter terminating at the lumbar enlargement. For the results shown in FIGS. 2A-2C, dosing solutions were acidified to pH 6.58 with HCl. Injection volume was 20 μl.\nIn the standard rat formalin test, as described above, the test substance is administered prior to formalin injection. […]\nRats (male Sprague-Dawley, 275-300 g, Harlan Industries, Indianapolis, Ind.) were implanted with lumbar intrathecal catheters under halothane anesthesia (Yaksh and Rudy, 1976). Catheters (Polyethlyene PE-10) extended from the cisterna to the rostral edge of the lumbar enlargement. Three to five days after implant, animals without motor dysfunction were tested. Drugs tested in this assay were dissolved in sterile saline (0.9% NaCl) and injected in a volume of 10 μl followed by 10 μl sterile saline to clear the catheter.\nAnimals were examined for the effects of drugs given in the formalin test, in which 50 μl of 5% formalin was injected on the plantar surface of the paw of a lightly anesthetized (halothane, 3%) animal. The number of spontaneous flinchings/shakings of the injected paw were counted at intervals after the injection of the formalin.\nThe area under the curve of flinches/min was calculated for phase 1 (time=0-10 min) and phase 2 (10-60 min). […]"}, "mechanical allodynia": {"tested_on": "mechanical allodynia", "experiment": "Mechanical allodynia in rat model of peripheral neuropathy (L5/L6 spinal nerve ligation), intrathecal, Example 2", "conditions": "for effect on mechanical allodynia (50% response threshold), 0.6 μmol: 0.6 μmol intrathecal", "description": "Experiments carried out in support of the present invention were performed in a rat model of peripheral neuropathy detailed in Example 2. Briefly, in the model used, rats are subjected to a surgical procedure, described by Kim and Chung (1992), designed to reproducibly injure peripheral nerves (spinal nerves L5 and L6). These rats develop a hyperesthetic state, which can be measured using one or more paradigms known in the art. Here, allodynia was measured by stimulation of neuropathic rat hindlimb using wire hairs having graded degrees of stiffness.\n[…]. Test solutions at pH 6.58 were administered intrathecally as described above. Mechanical allodynia was measured by pressing nylon filaments of varying diameters against the paw. Data are expressed in terms of 50% response threshold, which is the median buckling weight required to evoke paw withdrawal; the lower the stimulus level, the more severe the allodynia.\nMale Sprague-Dawley rats (200-350 gm) were prepared with chronic lumbar intrathecal catheters inserted under halothane anesthesia (Yaksh and Rudy). Animals were placed in a prone position and the left paraspinal muscles were separated from the spinous processes at the L4 -S2 levels, as described by Kim et al. The left L5 and L6 nerve roots were exposed and tightly ligated with 6-0 surgical silk suture. The rats were allowed to recover from anesthesia. Allodynia was typically observed to occur beginning 1-2 days post surgery and continuing for as long as 45 days. For testing, animals were placed in plastic cubicles with open wire mesh bottoms. Compound dissolved in preservative-free saline solution was administered in a volume of 10 μl through the intrathecal catheter, followed by 10 μl saline to flush the catheter line. Animals were tested for allodynia at various time points after drug treatment, as described below.\nTo assess the threshold of a non-noxious stimulus required to produce a left hind paw withdrawal (allodynia), Von Frey hairs (ranging from 0.4-15 grams), were systematically applied to the surgically treated hind paw. Failure to evoke a response was cause to test the next stiffer hair. Evocation of a brisk withdrawal response was cause to test the next lower stimulus intensity. This paradigm was repeated according to a statistical method (Dixon, 1976) to define the 50% response threshold.\nData in FIG. 6 are expressed in terms of 50% response threshold, which is the median buckling weight required to evoke paw withdrawal; the lower the stimulus level, the more severe the allodynia. Allodynia thresholds, measured 30 minutes after injection, were plotted against dosage. Each point represents a value for a single animal."}, "[2]": {"experiment": "Observation of motor dysfunction and overt behavior / side effects", "conditions": "for overt changes in behavior / adverse side effects, formalin test: formalin test studies; for overt changes in behavior / adverse side effects, formalin test / adverse side effects, neuropathy model: intrathecal; for adverse side effects, neuropathy model: neuropathic rats, 3-hydroxy MEGX 0.3 and 0.6 μmol, lidocaine 0.6 μmol", "excerpt": "Animals were also observed for the appearance of general motor dysfunction,as evidenced by inability to ambulate symmetrically and for any other overt signs of unusual activity."}, "[3]": {"conditions": "acute Phase 1, intrathecal, 10 min before 5% formalin, pH 6.58"}, "[4]": {"conditions": "lowest dose, 16.5 μg intrathecal, pH 6.58"}, "[5]": {"conditions": "persistent Phase 2, intrathecal, 10 min before 5% formalin, pH 6.58"}}, "note": "“Also recorded” adds a separate entry of the source.", "data": [{"smiles": "CCNCC(=O)Nc1c(C)ccc(O)c1C", "note": "[3-hydroxy MEGX, 2-(ethylamino)-N-(3-hydroxy-2,6-dimethylphenyl) acetamide]", "values": [{"measurement": "Phase 1 ED50 (approximately 50% inhibition)", "setting": "[1]; [3]", "value": 9.3, "unit": "µg"}, {"measurement": "Phase 1 ED50 (approximately 50% inhibition), molar", "setting": "[1]; [3]", "value": 42, "unit": "nmol"}, {"measurement": "duration of inhibition, higher doses", "setting": "[1]; higher doses, intrathecal, pH 6.58, \"up to 90 minutes or longer\"", "value": "≥ 90", "unit": "min"}, {"measurement": "blockade of persistent (Phase 2) nociceptive responses", "setting": "[1]; intrathecal after formalin injection, pH 6.58", "value": "blocks persistent (Phase 2) nociceptive responses"}, {"measurement": "blockade of formalin-induced acute and persistent nociceptive responses", "setting": "[1]; intrathecal, dosing solutions pH 9.2, n=4 animals/group", "value": "dose-dependent blockade"}, {"measurement": "duration of inhibition", "setting": "[1]; [4]", "value": "up to one hour"}, {"measurement": "inhibition of Phase 1 and Phase 2 responses", "setting": "[1]; [4]", "value": "showed inhibition of both the Phase 1 and Phase 2 responses"}, {"measurement": "Phase 2 ED50 (approximately 50% inhibition)", "setting": "[1]; [5]", "value": 29.9, "unit": "µg"}, {"measurement": "Phase 2 ED50 (approximately 50% inhibition), molar", "setting": "[1]; [5]", "value": 135, "unit": "nmol"}, {"measurement": "effect on mechanical allodynia (50% response threshold), 0.3 μmol", "setting": "mechanical allodynia; 0.3 μmol intrathecal, pH 6.58", "value": "significant analgesic effects"}, {"measurement": "effect on mechanical allodynia (50% response threshold), 0.6 μmol", "setting": "mechanical allodynia; pH 6.58", "value": "significant analgesic effects"}, {"measurement": "time of peak elevation of response (blockade of allodynia)", "setting": "mechanical allodynia; intrathecal, single bolus, n=6 animals/treatment", "value": "30 to 60", "unit": "min"}, {"measurement": "elevation of threshold response", "setting": "mechanical allodynia; intrathecal, varying doses, n=6 animals/treatment", "value": "resulted in elevation of threshold response"}, {"measurement": "possible maximum duration of effect of a single bolus injection", "setting": "mechanical allodynia; intrathecal, \"possibly up to\"", "value": "up to 20 hours"}, {"measurement": "duration of effect of a single bolus injection", "setting": "mechanical allodynia; intrathecal, lasting in excess of", "value": "> 3", "unit": "h"}, {"measurement": "motor block / motor effects (summary)", "setting": "[2]; IT, 3-hydroxy MEGX at effective anti-allodynia dose, MEGX in excess", "value": "did not cause motor block at an effective anti-allodynia dose; also recorded: no evidence of motor effects"}, {"measurement": "overt changes in behavior / adverse side effects, formalin test", "setting": "[2]", "value": "produced no overt changes in behavior"}, {"measurement": "adverse side effects, neuropathy model", "setting": "[2]", "value": "no observable adverse side effects"}]}, {"smiles": "CCN(CC)CC(=O)Nc1c(C)cccc1C", "note": "[lidocaine]", "values": [{"measurement": "effect on formalin-induced nociceptive responses", "setting": "[1]; intrathecal, pH 6.58, injection volume 20 μl", "value": "no effect on the formalin-induced nociceptive responses"}, {"measurement": "effect on mechanical allodynia (50% response threshold), 0.6 μmol", "setting": "mechanical allodynia; pH 6.58", "value": "did not block mechanical allodynia"}, {"measurement": "duration of motor dysfunction (hindquarter flaccidity / weakness)", "setting": "[2]; IT, 500 μg", "value": "approximately 10 minutes"}, {"measurement": "motor dysfunction, IT (in words)", "setting": "[2]; IT, Example 3, lidocaine and MEGX 500 μg, 3-OH L 58 μg (highest dose soluble in vehicle)", "value": "acute onset of hindquarter flaccidity"}, {"measurement": "overt changes in behavior / adverse side effects, formalin test", "setting": "[2]", "value": "transient hindlimb paresis"}, {"measurement": "adverse side effects, neuropathy model", "setting": "[2]", "value": "immediate and transient weakness"}]}]}
